Experimental data: patent US20050238730A1, “Compositions comprising an ethanolamine derivative and organic metal salts” (priority 2001, published 2005)

Tested on: human dermal fibroblasts
Experiment: Fibroblasts proliferation after 10 days of culture (cells trypsinized and counted with a Coulter counter)
Type: cell-based
Settings: 2% FCS
Description: Fibroblasts were seeded in 24 multiwell plates at 25,000 cells per well in 1 ml of DMEM supplemented with fetal calf serum (FCS) and antibiotics. Cultures were incubated 24 hours at 37° C. to allow cell attachment and spreading. Supernatants were then eliminated and replaced with fresh medium supplemented with 2% of FCS and containing the tested product at different concentrations. After 10 days of culture, cells were trypsinized and counted with a Coulter counter.

CN(C)CCO [DMAE, dimethylaminoethanol]
% effect vs control (DMAE 10^-4 M alone): 31% | % effect vs control (DMAE 10^-5 M alone): 14%

N[C@@H](CC(=O)[O-])C(=O)[O-].[Mg+2] [Mg aspartate, magnesium aspartate]
% effect vs control (metal salt alone 5 ng/ml): 2% | Mean of cell/ml (metal salt alone 5 ng/ml): 78073 ± 4231 cell/ml | % effect vs control (metal salt alone 50 ng/ml): 3% | Mean of cell/ml (metal salt alone 50 ng/ml): 79400 ± 1674 cell/ml | % effect vs control (metal salt alone 500 ng/ml): 21% | Mean of cell/ml (metal salt alone 500 ng/ml): 92753 ± 2771 cell/ml

zinc gluconate [Zn gluconate]
% effect vs control (metal salt alone 5 ng/ml): 0% | % effect vs control (metal salt alone 50 ng/ml): 3% | % effect vs control (metal salt alone 500 ng/ml): 11%
